From ChEMBL document CHEMBL1201862, “PubChem BioAssay data set” (2004)
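Grown in 96-well plates, cells were treated for 48 hours with each compound at five concentrations. Insufficient inhibition: endpoint recorded as highest concentration tested. GI50: concentration for 50% inhibition of growth.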 Calls of active or inactive are those of the source. No stated cut-off is given here; in the data, active = GI50 up to about 1.1 µM and inactive = higher.

Tests used:
Assay in all cases: NCI-60 cell line screen, 48 h
[1] = test system: CAKI-1
[2] = test system: CCRF-CEM
[3] = test system: DU-145
[4] = test system: HOP-62
[5] = test system: LOX IMVI
[6] = test system: MDA-MB-231
[7] = test system: NCI-H226
[8] = test system: OVCAR-3
[9] = test system: OVCAR-5
[10] = test system: RPMI-8226
[11] = test system: SF-268
[12] = test system: SF-295
[13] = test system: SF-539
[14] = test system: SK-MEL-28
[15] = test system: T47D
[16] = test system: TK-10
[17] = test system: UACC-62
[18] = test system: UO-31
[19] = test system: HL-60
[20] = test system: A498

Structure (SMILES)	GI50 [1]	GI50 [2]	GI50 [3]	GI50 [4]	GI50 [5]	GI50 [6]	GI50 [7]	GI50 [8]	GI50 [9]	GI50 [10]	GI50 [11]	GI50 [12]	GI50 [13]	GI50 [14]	GI50 [15]	GI50 [16]	GI50 [17]	GI50 [18]	GI50 [19]	GI50 [20]
Cc1ccc(/C=C2\NC(=S)NC2=O)cc1	> 100 µM (inactive)	> 100 µM (inactive)	> 100 µM (inactive)	> 100 µM (inactive)	40.3 µM (inactive)	> 100 µM (inactive)	> 100 µM (inactive)	> 100 µM (inactive)	> 100 µM (inactive)	> 100 µM (inactive)	> 100 µM (inactive)	> 100 µM (inactive)	> 100 µM (inactive)	> 100 µM (inactive)	> 100 µM (inactive)	> 100 µM (inactive)	> 100 µM (inactive)	> 100 µM (inactive)		
c1ccc2c(c1)c1c(n2CCOCCN2CCCCC2)CCCC1		12.4 µM (inactive)	17.1 µM (inactive)	15.1 µM (inactive)	13.3 µM (inactive)	11.8 µM (inactive)	21.7 µM (inactive)	9.75 µM (inactive)	12.3 µM (inactive)	9.29 µM (inactive)	16.9 µM (inactive)	16.2 µM (inactive)	16.6 µM (inactive)	24.6 µM (inactive)	13.4 µM (inactive)	14.3 µM (inactive)	15 µM (inactive)	11.1 µM (inactive)	2.37 µM (inactive)	
N=c1oc2ccccc2cc1-c1nc2ccccc2c(=O)[nH]1	> 100 µM (inactive)	79.4 µM (inactive)	> 100 µM (inactive)	22.7 µM (inactive)	54.5 µM (inactive)	29.3 µM (inactive)	29.7 µM (inactive)		> 100 µM (inactive)	> 100 µM (inactive)	29 µM (inactive)	32.7 µM (inactive)	60.4 µM (inactive)	> 100 µM (inactive)	> 100 µM (inactive)	35.3 µM (inactive)	27.8 µM (inactive)	27.1 µM (inactive)	45.7 µM (inactive)	
C=CCNC(=O)NC(=O)CSC1=NC(=O)C2(NN1)c1ccccc1-c1ccccc12	> 10 µM (inactive)	> 10 µM (inactive)	> 10 µM (inactive)	> 10 µM (inactive)	> 10 µM (inactive)	> 10 µM (inactive)	> 10 µM (inactive)		> 10 µM (inactive)	> 10 µM (inactive)	> 10 µM (inactive)	> 10 µM (inactive)	> 10 µM (inactive)	> 10 µM (inactive)	> 10 µM (inactive)	> 10 µM (inactive)	> 10 µM (inactive)	9.62 µM (inactive)	> 10 µM (inactive)	
O=C1CC(=O)NC(NN2C(=O)/C(=C/c3ccc(Cl)cc3)N=C2c2ccccc2)=N1	72.6 µM (inactive)	6.4 µM (inactive)	30.1 µM (inactive)	15.5 µM (inactive)		17.9 µM (inactive)	16.9 µM (inactive)	15.9 µM (inactive)	15.1 µM (inactive)	11.3 µM (inactive)	14.1 µM (inactive)	14.5 µM (inactive)	16.8 µM (inactive)	19.1 µM (inactive)	28.6 µM (inactive)	16.5 µM (inactive)	12.5 µM (inactive)	16.3 µM (inactive)		16.9 µM (inactive)
CCCCCCCCCCCCCCCCOCC(CCl)OP(=O)(O)OP(=O)(O)OCC1OC(n2ccc(N)nc2=O)C(O)C1O (stereo not drawn)	> 100 µM (inactive)	> 100 µM (inactive)		> 100 µM (inactive)	> 100 µM (inactive)	> 100 µM (inactive)	> 100 µM (inactive)	> 100 µM (inactive)	> 100 µM (inactive)	> 100 µM (inactive)	> 100 µM (inactive)	> 100 µM (inactive)	> 100 µM (inactive)	99.3 µM (inactive)	> 100 µM (inactive)	> 100 µM (inactive)	> 100 µM (inactive)	> 100 µM (inactive)	> 100 µM (inactive)	> 100 µM (inactive)
COc1cc2c3c(n(C)c(=O)c2cc1OC)-c1cc2c(cc1/C3=C\CCCI)OCO2	4.35 µM (inactive)	1.29 µM (inactive)	1.17 µM (inactive)	10 µM (inactive)	8.3 µM (inactive)		1.34 µM (inactive)	> 61.1 µM (inactive)	> 4.65 µM (inactive)	3.92 µM (inactive)	0.776 µM (active)	0.904 µM (active)	3.94 µM (inactive)		0.7 µM (active)	0.649 µM (active)	4.49 µM (inactive)	0.653 µM (active)	> 47.1 µM (inactive)	2.38 µM (inactive)
O=c1[nH]c(=O)n(C2CC(O)C(CO)O2)cc1OCCCc1ccccc1 (stereo not drawn)	> 100 µM (inactive)	> 100 µM (inactive)	> 100 µM (inactive)	> 100 µM (inactive)	> 100 µM (inactive)	> 100 µM (inactive)	> 100 µM (inactive)	> 100 µM (inactive)	> 100 µM (inactive)	> 100 µM (inactive)	> 100 µM (inactive)	> 100 µM (inactive)		> 100 µM (inactive)	> 100 µM (inactive)	> 100 µM (inactive)	> 100 µM (inactive)	> 100 µM (inactive)	> 100 µM (inactive)	
CC(=O)N1CCN(C23OC4(N5CCN(C(C)=O)CC5)C5C6CC(C7C6C4C72)C53)CC1 (stereo not drawn)	> 100 µM (inactive)	> 100 µM (inactive)	> 100 µM (inactive)	> 100 µM (inactive)	> 100 µM (inactive)	> 100 µM (inactive)	> 100 µM (inactive)	> 100 µM (inactive)	> 100 µM (inactive)	> 100 µM (inactive)	> 100 µM (inactive)	> 100 µM (inactive)	> 100 µM (inactive)		> 100 µM (inactive)	> 100 µM (inactive)	> 100 µM (inactive)	> 100 µM (inactive)	> 100 µM (inactive)	
CN(C)C1(C(=O)O)CC1		> 100 µM (inactive)	> 100 µM (inactive)	> 100 µM (inactive)	> 100 µM (inactive)		> 100 µM (inactive)	> 100 µM (inactive)	> 100 µM (inactive)	> 100 µM (inactive)	> 100 µM (inactive)	> 100 µM (inactive)	> 100 µM (inactive)	> 100 µM (inactive)	> 100 µM (inactive)	> 100 µM (inactive)			> 100 µM (inactive)	> 100 µM (inactive)
O=C1NC(N2CCCCC2)=N/C1=C\c1ccc(Cl)cc1	> 100 µM (inactive)	39.7 µM (inactive)	44.1 µM (inactive)	46.7 µM (inactive)	34.5 µM (inactive)	34.1 µM (inactive)	22.3 µM (inactive)	26.4 µM (inactive)	> 100 µM (inactive)	66.2 µM (inactive)	38.2 µM (inactive)	60.5 µM (inactive)	94 µM (inactive)	92 µM (inactive)	41.5 µM (inactive)	30.2 µM (inactive)	26.5 µM (inactive)	34.7 µM (inactive)	> 100 µM (inactive)	
